Assay results reported in patent US12653191B2, “Active compound combinations” (Bayer Aktiengesellschaft, priority 2020, dated 2026).
Where “and” joins values, the source holds several entries; their conditions need not be identical. Identical values can stand only once. Like-named read-outs stand apart in the source and are kept apart here.

Tests used:
[1] = system: Alternaria alternata; assay: in vitro-Test with fungal microorganisms, Method B (tables A13-A22); type: cell-based
Method: (§1) Example: In Vitro-Test with Fungal Microorganisms
(§2) Wells of 96-well microtiter plates are filled with 30 μl of a preparation of test compound or compound combination in methanol+emulsifier alkylaryl-polyglycol-ether. Thereafter, the solvent is evaporated in a hood. At the next step, 200 μl of liquid growth medium is given, that has been amended with an appropriate concentration of spores or mycelium suspension of the test fungus.
(§3) With the aid of a photometer, the extinction in all wells is measured at the wavelength of 600 nm.
(§4) The microtiter plates are incubated for 3 to 7 days at 20° C. and 85% relative humidity. After the incubation inhibition of growth is determined photometrically. Efficacy is calculated in relation to the untreated control, 0% efficacy means fungal growth as high as in untreated control while 100% efficacy means no fungal growth is measured.
(§5) The data in tables A1 to A12, B1 to B14, C1 to C10, D1 to D8, E1 to E8, F1 to F11, G1 to G4, H1 to H4 and I1 to I5 were collected according to Method A. The data in tables A13 to A22, B15 to B18, C11 to C20, E9 to E16, F12 to F15, G5 to G15, H5 to H8, I6 to I11 and J1 to J11 were collected according to Method B.

[2] = system: Fusarium culmorum; assay: in vitro-Test with fungal microorganisms, Method B (tables G5-G15); type: cell-based
Method: as §1, §2, §3, §4, §5

[3] = system: Colletotrichum lindemuthianum; assay: in vitro-Test with fungal microorganisms, Method A (tables D1-D8); type: cell-based
Method: as §1
as §2, with “10” for “30”, “100” for “200”, “potato dextrose” for “growth”, “given into each well,” for “given,”
(§6) With the aid of a photometer, the extinction in all wells is measured at the wavelength of 620 nm.
as §4, with “incubated” for “incubated for 3 to 7 days”, “The” for “After the incubation”, “again photometrically 3-5 days after the application.” for “photometrically.”
as §5

[4] = system: Diaporthe citri; assay: in vitro-Test with fungal microorganisms, Method A (tables F1-F11); type: cell-based
Method: as §1
as §2, with “10” for “30”, “100” for “200”, “potato dextrose” for “growth”, “given into each well,” for “given,”
as §6
as §4, with “incubated” for “incubated for 3 to 7 days”, “The” for “After the incubation”, “again photometrically 3-5 days after the application.” for “photometrically.”
as §5

[5] = system: Ustilago segetum var. avenae; assay: in vitro-Test with fungal microorganisms, Method B (tables I6-I11); type: cell-based
Method: as §1, §2, §3, §4, §5

[6] = system: Colletotrichum coccodes; assay: in vitro-Test with fungal microorganisms, Method B (tables J1-J11); type: cell-based
Method: as §1, §2, §3, §4, §5

[7] = system: Cordana musae; assay: in vitro-Test with fungal microorganisms, Method B (tables E9-E16); type: cell-based; conditions: single active
Method: as §1, §2, §3, §4, §5

[8] = system: Alternaria alternate; assay: in vitro-Test with fungal microorganisms, Method A (tables A1-A12); type: cell-based, Alternaria alternata; conditions: Alternaria, applied alone, read-out: Efficacy %
Method: as §1
as §2, with “10” for “30”, “100” for “200”, “potato dextrose” for “growth”, “given into each well,” for “given,”
as §6
as §4, with “incubated” for “incubated for 3 to 7 days”, “The” for “After the incubation”, “again photometrically 3-5 days after the application.” for “photometrically.”
as §5

[9] = system: Botrytis cinerea; assay: in vitro-Test with fungal microorganisms, Method A (tables B1-B14); type: cell-based; conditions: alone
Method: as §1
as §2, with “10” for “30”, “100” for “200”, “potato dextrose” for “growth”, “given into each well,” for “given,”
as §6
as §4, with “incubated” for “incubated for 3 to 7 days”, “The” for “After the incubation”, “again photometrically 3-5 days after the application.” for “photometrically.”
as §5

[10] = system: Cercospora beticola; assay: in vitro-Test with fungal microorganisms, Method A (tables C1-C10); type: cell-based
Method: as §1
as §2, with “10” for “30”, “100” for “200”, “potato dextrose” for “growth”, “given into each well,” for “given,”
as §6
as §4, with “incubated” for “incubated for 3 to 7 days”, “The” for “After the incubation”, “again photometrically 3-5 days after the application.” for “photometrically.”
as §5

[11] = system: Cercospora beticola; assay: in vitro-Test with fungal microorganisms, Method B (tables C11-C20); type: cell-based
Method: as §1, §2, §3, §4, §5

[12] = system: Cordana musae; assay: in vitro-Test with fungal microorganisms, Method A (tables E1-E8); type: cell-based; conditions: Neocordana musae, single substance, read-out: Efficacy %
Method: as §1
as §2, with “10” for “30”, “100” for “200”, “potato dextrose” for “growth”, “given into each well,” for “given,”
as §6
as §4, with “incubated” for “incubated for 3 to 7 days”, “The” for “After the incubation”, “again photometrically 3-5 days after the application.” for “photometrically.”
as §5

[13] = single active compound at 4 ppm
[14] = Cercospora beticola, read-out: Efficacy %
[15] = Cercospora beticola, single compound, read-out: Efficacy %
[16] = Fusarium culmorum, alone, read-out: Efficacy
[17] = Fusarium culmorum, single active compound, read-out: Efficacy

CCO[PH](=O)O [fosetylal]
Efficacy ([1]; 4 ppm): 0% | Efficacy ([1]; 20 ppm): 4% | Efficacy ([1]; 100 ppm): 8% | Efficacy ([1]; single compound, 0.8 ppm): 0% | Efficacy ([1]; single compound, 4 ppm): 2% | Efficacy ([2]; 0.8 ppm, alone): 11%

CCO[PH](=O)[O-].CCO[PH](=O)[O-].CCO[PH](=O)[O-].[Al+3] [(15.012) fosetyl-aluminium, fosetyl-aluminium]
Efficacy % ([3]; mixing partner alone, 4.0 ppm): 0% | Efficacy % ([3]; mixing partner alone, 20.0 ppm): 8% | Efficacy % ([3]; mixing partner alone, 100.0 ppm): 70% | Efficacy % ([3]; single active at 0.8 ppm): 0% | Efficacy % ([3]; single active at 4.0 ppm): 0% | Efficacy % ([3]; single active at 100.0 ppm): 39% and 58% | Efficacy ([4]; Table F11, 0.8 ppm alone): 23% | Efficacy ([4]; Table F11, 4.0 ppm alone): 0% | Efficacy ([4]; Table F11, 20.0 ppm alone): 0% | Efficacy ([4]; Table F11, 100.0 ppm alone): 0% | Efficacy ([4]; applied alone, 0.8 ppm): 0% | Efficacy ([4]; applied alone, 4.0 ppm): 23% | Efficacy ([4]; applied alone, 100.0 ppm): 30%

COCC(=O)N(c1c(C)cccc1C)[C@H](C)C(=O)OC [(12.004) metalaxylm]
Efficacy % ([5]; 0.8 ppm): 8% | Efficacy % ([5]; 100 ppm): 3% | Efficacy % ([6]; single active compound at 0.8 ppm): 40% | Efficacy % [6, 13]: 24% | Efficacy % ([6]; single active compound at 20 ppm): 48% | Efficacy % ([6]; single active compound at 100 ppm): 61%

CCCN(CC)CC1COC2(CCC(C(C)(C)C)CC2)O1 (centres unmarked) [spiroxamin]
Efficacy ([1]; single compound, 0.8 ppm): 3% | Efficacy ([1]; single compound, 4 ppm): 15% | Efficacy ([1]; single compound, 20 ppm): 15% | Efficacy ([2]; 0.8 ppm, alone): 3%

CCO[PH](=O)[O-].CCO[PH](=O)[O-].CCO[PH](=O)[O-].[Al+3] [(15.012) fosetyl-al]
Efficacy ([7]; 0.8 ppm): 0%

OC(Cc1ccccc1Cl)(Cn1nc[nH]c1=S)C1(Cl)CC1 (centres unmarked) [(1.018) prothioconazole, prothioconazole]
inhibition of growth at 0.008 ppm ([8]; 0.008 ppm): 20% | inhibition of growth at 0.04 ppm ([8]; 0.04 ppm): 15% | inhibition of growth at 0.2 ppm ([8]; 0.2 ppm): 94% | inhibition of growth at 0.004 ppm ([1]; Alternaria alternata, single compound, 0.004 ppm, read-out: Efficacy): 46% | inhibition of growth at 0.02 ppm ([1]; Alternaria alternata, single compound, 0.02 ppm, read-out: Efficacy): 89% | inhibition of growth at 0.1 ppm ([1]; Alternaria alternata, single compound, 0.1 ppm, read-out: Efficacy): 100% | inhibition of growth at 0.5 ppm ([1]; Alternaria alternata, single compound, 0.5 ppm, read-out: Efficacy): 99% | inhibition of growth at 0.008 ppm ([9]; Botrytis cinerea, 0.008 ppm, read-out: Efficacy %): 0% | inhibition of growth at 0.04 ppm ([9]; Botrytis cinerea, 0.04 ppm, read-out: Efficacy %): 48% | inhibition of growth at 0.2 ppm ([9]; Botrytis cinerea, 0.2 ppm, read-out: Efficacy %): 94% | inhibition of growth at 1 ppm ([9]; Botrytis cinerea, 1.0 ppm, read-out: Efficacy %): 100% | Efficacy % ([10]; 0.2 ppm alone): 98% | inhibition of growth at 0.008 ppm ([10]; Cercospora beticola, 0.008 ppm, read-out: Efficacy %): 6% | inhibition of growth at 0.04 ppm ([10]; Cercospora beticola, 0.04 ppm alone, read-out: Efficacy %): 22% | inhibition of growth at 0.04 ppm ([10]; Cercospora beticola, 0.04 ppm, read-out: Efficacy %): 38% | inhibition of growth at 0.2 ppm ([10]; Cercospora beticola, 0.2 ppm alone, read-out: Efficacy %): 100% | inhibition of growth at 0.2 ppm ([10]; Cercospora beticola, 0.2 ppm, read-out: Efficacy %): 100% | inhibition of growth at 1 ppm ([10]; Cercospora beticola, 1.0 ppm alone, read-out: Efficacy %): 100% | inhibition of growth at 1 ppm ([10]; Cercospora beticola, 1.0 ppm, read-out: Efficacy %): 100% | inhibition of growth at 0.004 ppm [11, 14]: 39% | inhibition of growth at 0.1 ppm [11, 14]: 100% | inhibition of growth at 0.5 ppm [11, 14]: 100% | inhibition of growth at 0.004 ppm [11, 15]: 30% | inhibition of growth at 0.02 ppm ([11]; Cercospora beticola, single compound, 0.02 ppm, read-out: Efficacy %): 0% | inhibition of growth at 0.1 ppm [11, 15]: 15% | inhibition of growth at 0.5 ppm [11, 15]: 0% | inhibition of growth at 0.008 ppm ([3]; Colletotrichum lindemuthianum, mixing partner alone, 0.008 ppm, read-out: Efficacy %): 0% | inhibition of growth at 0.04 ppm ([3]; Colletotrichum lindemuthianum, mixing partner alone, 0.04 ppm, read-out: Efficacy %): 20% | inhibition of growth at 0.2 ppm ([3]; Colletotrichum lindemuthianum, mixing partner alone, 0.2 ppm, read-out: Efficacy %): 100% | inhibition of growth at 1 ppm ([3]; Colletotrichum lindemuthianum, mixing partner alone, 1.0 ppm, read-out: Efficacy %): 100% | inhibition of growth at 0.04 ppm ([12]; 0.04 ppm): 6% | inhibition of growth at 1 ppm ([12]; 1.0 ppm): 100% | inhibition of growth at 0.004 ppm ([7]; Neocordana musae, 0.004 ppm, read-out: Efficacy): 0% | inhibition of growth at 0.1 ppm ([7]; Neocordana musae, 0.1 ppm, read-out: Efficacy): 81% | inhibition of growth at 0.5 ppm ([7]; Neocordana musae, 0.5 ppm, read-out: Efficacy): 100% | inhibition of growth at 0.008 ppm ([4]; Diaporthe citri, applied alone, 0.008 ppm, read-out: Efficacy): 0% | inhibition of growth at 0.04 ppm ([4]; Diaporthe citri, applied alone, 0.04 ppm, read-out: Efficacy): 95% | inhibition of growth at 0.2 ppm ([4]; Diaporthe citri, applied alone, 0.2 ppm, read-out: Efficacy): 100% | inhibition of growth at 1 ppm ([4]; Diaporthe citri, applied alone, 1.0 ppm, read-out: Efficacy): 99% | inhibition of growth at 0.004 ppm [2, 16]: 6% | inhibition of growth at 0.02 ppm [2, 16]: 52% | inhibition of growth at 0.1 ppm ([2]; Fusarium culmorum, 0.1 ppm, alone, read-out: Efficacy): 98% | inhibition of growth at 0.004 ppm [2, 17]: 22% | inhibition of growth at 0.02 ppm [2, 17]: 22% | inhibition of growth at 0.004 ppm ([6]; Colletotrichum coccodes, single active compound at 0.004 ppm, read-out: Efficacy %): 0% | inhibition of growth at 0.02 ppm ([6]; Colletotrichum coccodes, single active compound at 0.02 ppm, read-out: Efficacy %): 1% | inhibition of growth at 0.5 ppm ([6]; Colletotrichum coccodes, single active compound at 0.5 ppm, read-out: Efficacy %): 100%

CCO[PH](=O)[O-].CCO[PH](=O)[O-].CCO[PH](=O)[O-].[Al+3] [(15.012) fosetylaluminium]
Efficacy % ([9]; 0.8 ppm): 0% | Efficacy % ([9]; 4.0 ppm): 13% | Efficacy % ([9]; 100.0 ppm): 1%

Fc1ccc(Oc2ccnc3cc(Cl)cc(Cl)c23)cc1 [(13.005) quinoxifen]
Efficacy % ([11]; single compound, 0.08 ppm): 3%

N#Cc1ccc(Oc2ccc(C(F)(F)C(O)(Cn3[nH]cnc3=S)c3ccc(F)cc3F)nc2)cc1 (centres unmarked) [(1.062) fluoxytioconazole, fluoxytio-conazole]
Efficacy % ([11]; single compound, 0.008 ppm): 0% | Efficacy % ([11]; single compound, 0.04 ppm): 0% | Efficacy % ([11]; single compound, 0.2 ppm): 0% | Efficacy % ([11]; single compound, 1 ppm): 48% and 54% | Efficacy ([7]; 0.008 ppm): 4% | Efficacy ([7]; 0.2 ppm): 10% | Efficacy ([2]; single active compound, 1 ppm): 30% | Efficacy % ([5]; 0.04 ppm): 43% | Efficacy % ([6]; 0.008 ppm): 32% | Efficacy % ([6]; 0.04 ppm): 0% | Efficacy % ([6]; single active compound at 0.008 ppm): 0% | Efficacy % ([6]; single active compound at 0.04 ppm): 2% | Efficacy % ([6]; single active compound at 0.2 ppm): 29% | Efficacy % ([6]; single active compound at 1 ppm): 35%

CS(=O)(=O)Oc1cccc(Cl)c1C1CC(c2csc(C3CCN(C(=O)Cn4nc(C(F)F)cc4C(F)F)CC3)n2)=NO1 (centres unmarked) [(15.043) fluoxapiprolin, fluoxa-piprolin]
Efficacy % ([11]; single compound, 0.8 ppm): 0% | Efficacy % ([11]; single compound, 4 ppm): 3% and 0% | Efficacy % ([11]; single compound, 20 ppm): 0% | Efficacy ([7]; 20 ppm): 0% | Efficacy ([2]; single active compound, 0.8 ppm): 13% | Efficacy ([2]; single active compound, 4 ppm): 14% | Efficacy % ([6]; 0.8 ppm): 0% | Efficacy % ([6]; 20 ppm): 0% | Efficacy % [6, 13]: 0% and 2%
